Data reported in US10189858B2, “Deuterium-enriched isoindolinonyl-piperidinonyl conjugates and oxoquinazolin-3(4H)-yl-piperidinonyl conjugates and methods of treating medical disorders using same” (DeuteRx, LLC, priority 2015, dated 2019).

Experiment: Deuterium/hydrogen (D/H) exchange in deuterium-enriched dBET1 in PBS (HPLC/UV and LC/MS)
Assay type: physicochemical
Settings: PBS pH 7.4, 25° C.
Protocol: In order to evaluate the stability against racemization provided by deuterium enrichment at the racemizable chiral center of the glutarimide portion of dBET1, a sample of racemic, deuterium-enriched dBET1 from Example 1 (i.e., D-dBET1 from Example 1) was incubated in PBS (pH=7.4) at 25° C. in the presence of ethyl paraben as an internal standard. A 20 μL solution of racemic, deuterium-enriched dBET1 (D-dBET1), aliquoted from 21.6 mg dissolved in 1 mL DMSO, was added to 4 mL of PBS (pH=7.4). The reaction was performed in duplicate. Aliquots were taken out at preset times and quenched with methanol in the presence of acetic acid (250 μL aliquot quenched with 500 μL 5% (v/v) acetic acid in methanol). The samples were analyzed by HPLC/UV (10 μL injection) and LC/MS (1 μL injection) using a reverse-phase column.
Since the reaction is performed in an achiral medium, the kinetics of D/H exchange will be independent of the chirality of the starting material. As a result, separation of the enantiomers of D-dBET1 prior to the stability study is not required.
A change in the ratio is expected if D/H exchange is observed since, for example, a peak at M+2, where M is the mass of the mono-deuterated isotopomer of dBET1, would by D/H exchange disappear and give a corresponding peak at M+1. Similarly, M+3 would give M+2, etc.

[2H]C1(N2C(=O)c3cccc(OCC(=O)NCCCCNC(=O)C[C@@H]4N=C(c5ccc(Cl)cc5)c5c(sc(C)c5C)-n5c(C)nnc54)c3C2=O)CCC(=O)NC1=O (mixture of isomers) [D-dBET1]
half-life at 0.107 mg/mL: > 24 h
area of chromatography peak normalized to internal standard (UV analysis) (ethyl paraben internal standard): decreased as a function of the incubation time
change of mass spectral isotopic distribution as a function of incubation time (up to 24h, LC/MS): did not change significantly
